From the supplement of paper PMC11451515

Tested on: P12-Ichikawa
Assay: cell viability relative to DMSO control; higher = less cytotoxic
Details: 48 h
How it was run: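 In 1536-well plates, 5 μl of leukemia cells were seeded per well: 500 cells/well for NOMO1 or SEM and 1000 cells/well for P12-Ichikawa. Each line had first been adapted for at least four passages in each medium. Library compounds in DMSO were pin-dosed at 11 threefold concentrations between 47 μM and 0.79 nM, and CellTiter-Glo One luminescence was read after 48 h at 37°C. Viability is a per-plate percentage relative to DMSO wells, with cell-free wells as background.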

[1] = HPLM + 10% dialyzed FBS, 0.000781 µM
[2] = HPLM + 10% dialyzed FBS, 0.00234 µM
[3] = HPLM + 10% dialyzed FBS, 0.00702 µM
[4] = HPLM + 10% dialyzed FBS, 0.0211 µM
[5] = HPLM + 10% dialyzed FBS, 0.0632 µM
[6] = HPLM + 10% dialyzed FBS, 0.19 µM
[7] = HPLM + 10% dialyzed FBS, 0.569 µM
[8] = HPLM + 10% dialyzed FBS, 1.71 µM
[9] = HPLM + 10% dialyzed FBS, 5.12 µM
[10] = HPLM + 10% dialyzed FBS, 15.4 µM
[11] = HPLM + 10% dialyzed FBS, 46.1 µM
[12] = RPMI 5 mM glucose + 10% FBS, 0.000781 µM
[13] = RPMI 5 mM glucose + 10% FBS, 0.00234 µM
[14] = RPMI 5 mM glucose + 10% FBS, 0.00702 µM
[15] = RPMI 5 mM glucose + 10% FBS, 0.0211 µM
[16] = RPMI 5 mM glucose + 10% FBS, 0.0632 µM
[17] = RPMI 5 mM glucose + 10% FBS, 0.19 µM
[18] = RPMI 5 mM glucose + 10% FBS, 0.569 µM
[19] = RPMI 5 mM glucose + 10% FBS, 1.71 µM
[20] = RPMI 5 mM glucose + 10% FBS, 5.12 µM
[21] = RPMI 5 mM glucose + 10% FBS, 15.4 µM
[22] = RPMI 5 mM glucose + 10% FBS, 46.1 µM
[23] = RPMI 5 mM glucose + 10% dialyzed FBS, 0.000781 µM
[24] = RPMI 5 mM glucose + 10% dialyzed FBS, 0.00234 µM
[25] = RPMI 5 mM glucose + 10% dialyzed FBS, 0.00702 µM
[26] = RPMI 5 mM glucose + 10% dialyzed FBS, 0.0211 µM
[27] = RPMI 5 mM glucose + 10% dialyzed FBS, 0.0632 µM
[28] = RPMI 5 mM glucose + 10% dialyzed FBS, 0.19 µM
[29] = RPMI 5 mM glucose + 10% dialyzed FBS, 0.569 µM
[30] = RPMI 5 mM glucose + 10% dialyzed FBS, 1.71 µM
[31] = RPMI 5 mM glucose + 10% dialyzed FBS, 5.12 µM
[32] = RPMI 5 mM glucose + 10% dialyzed FBS, 15.4 µM
[33] = RPMI 5 mM glucose + 10% dialyzed FBS, 46.1 µM

Structure (SMILES) | cell viability [1] | cell viability [2] | cell viability [3] | cell viability [4] | cell viability [5] | cell viability [6] | cell viability [7] | cell viability [8] | cell viability [9] | cell viability [10] | cell viability [11] | cell viability [12] | cell viability [13] | cell viability [14] | cell viability [15] | cell viability [16] | cell viability [17] | cell viability [18] | cell viability [19] | cell viability [20] | cell viability [21] | cell viability [22] | cell viability [23] | cell viability [24] | cell viability [25] | cell viability [26] | cell viability [27] | cell viability [28] | cell viability [29] | cell viability [30] | cell viability [31] | cell viability [32] | cell viability [33]
COCCCC/C(=N\OCCN)c1ccc(C(F)(F)F)cc1 | 98.4% | 87.1% | 91.2% | 91% | 94.9% | 80.8% | 74.4% | 85% | 80.9% | 72.2% | 63.5% | 83.5% | 81.8% | 91.7% | 79.8% | 95.8% | 72% | 62.2% | 83.2% | 80.3% | 67% | 41.9% | 79.8% | 80.7% | 76.9% | 84.6% | 84.4% | 80.3% | 77.9% | 78.8% | 74.5% | 77.2% | 52.7%
O=C(NOCC1CC1)c1ccc(F)c(F)c1Nc1ccc(I)cc1Cl | 92.8% | 98% | 104% | 110% | 114% | 106% | 101% | 94.8% | 84.3% | 82.2% | 79.3% | 96.6% | 102% | 105% | 103% | 110% | 98% | 97.1% | 88.7% | 74% | 60.9% | 70% | 92.9% | 106% | 98% | 112% | 109% | 114% | 110% | 112% | 91.8% | 71% | 82.6%
CO[C@H]1C[C@@H]2CC[C@@H](C)[C@@](O)(O2)C(=O)C(=O)N2CCCC[C@H]2C(=O)O[C@H]([C@@H](C)C[C@@H]2CC[C@@H](O)[C@H](OC)C2)CC(=O)[C@H](C)/C=C(\C)[C@@H](O)[C@@H](OC)C(=O)[C@H](C)C[C@H](C)/C=C/C=C/C=C/1C | 118% | 127% | 122% | 125% | 124% | 116% | 121% | 124% | 113% | 112% | 91.8% | – | – | – | – | – | – | – | – | – | – | – | – | – | – | – | – | – | – | – | – | – | –
Cc1nc(-c2ccc(-c3ccc(C(=O)N4CCc5cc6c(cc54)C4(CCN(C)CC4)CO6)cc3)c(C)c2)no1 | 106% | 114% | 111% | 116% | 122% | 111% | 121% | 123% | 119% | 119% | 120% | 107% | 112% | 106% | 116% | 117% | 114% | 123% | 115% | 121% | 124% | 118% | 107% | 107% | 113% | 116% | 110% | 121% | 120% | 116% | 115% | 121% | 126%
O=C(CCCN1CCC(O)(c2ccc(Cl)cc2)CC1)c1ccc(F)cc1 | 105% | 107% | 109% | 116% | 119% | 123% | 111% | 111% | 119% | 127% | 107% | 106% | 112% | 111% | 124% | 124% | 132% | 116% | 126% | 124% | 131% | 95.9% | 108% | 114% | 117% | 111% | 116% | 131% | 115% | 115% | 119% | 112% | 99.8%
O=C1\C=C(OC2=C(C=CC=C12)C3=CC=CC4=C3SC5=C4C=CC=C5)\N6CCOCC6 | 119% | 125% | 127% | 129% | 137% | 130% | 130% | 131% | 129% | 132% | 121% | – | – | – | – | – | – | – | – | – | – | – | – | – | – | – | – | – | – | – | – | – | –
Cc1ccc(C(=O)Nc2ccc([S+](=O)([O-])O)c3cc([S+](=O)([O-])O)cc([S+](=O)([O-])O)c23)cc1NC(=O)c1cccc(NC(=O)Nc2cccc(C(=O)Nc3cc(C(=O)Nc4ccc([S+](=O)([O-])O)c5cc([S+](=O)([O-])O)cc([S+](=O)([O-])O)c45)ccc3C)c2)c1 | 97.5% | 104% | 92.8% | 95.4% | 96.4% | 87.2% | 77.3% | 81.5% | 57.1% | 55.2% | 47% | 97.3% | 89.2% | 99.6% | 102% | 88.6% | 82.2% | 92.4% | 81.1% | 60.5% | 53.4% | 44.3% | 99.1% | 94.9% | 93.5% | 94% | 89.3% | 88.8% | 80% | 75.9% | 56.4% | 54% | 42.9%
CN(C[C@@H]1COCCO1)[S+]([O-])(=O)NC2=CC3=C(C=C2)\C=C/C4=C(C=C(C=N4)C5=C[N](C)N=C5)C3=O | 93.4% | 99.6% | 94.1% | 101% | 93.7% | 90.1% | 71.8% | 67.4% | 54.7% | 49.8% | 52.4% | 95.6% | 92.7% | 103% | 95.2% | 102% | 96.1% | 76.6% | 53.5% | 48.8% | 42.2% | 50% | 94% | 97.1% | 88.7% | 91.2% | 105% | 88.9% | 75.3% | 53.6% | 43.3% | 37.6% | 41.5%
